Laboratory results taken from patent US20210161880A1, “METHODS FOR TREATING DEMENTIA RELATED PSYCHOSIS” (ACADIA Pharmaceuticals Inc., priority 2019, published 2021).

Columns and labels:
Type in all cases: in vivo, human
[1] = tested on: patients with dementia related psychosis; experiment: Safety and tolerability (MMSE, long-term tolerability)
Procedure: Safety and tolerability of pimavanserin was also evaluated compared to placebo in patients with dementia related psychosis who have been stabilized on pimavanserin therapy. Safety endpoints were: treatment-emergent adverse events (TEAEs); serious adverse events (SAEs); withdrawals due to adverse events (AEs); clinically important changes in other safety assessments; Global Clinician Assessment of Suicidality (GCAS) score; Mini-Mental State Examination (MMSE) score; and Extrapyramidal Symptom Rating Scale (ESRS) score.

[2] = tested on: patients with dementia related psychosis; experiment: Open-label period of relapse prevention study of pimavanserin; settings: for patients meeting response criteria: ≥30% reduction on SAPS-H+D total score and CGI-I score of 1 or 2
Procedure: (§1) A double-blind, placebo-controlled study of the efficacy and safety of pimavanserin was conducted to evaluate relapse prevention in patients with dementia related psychosis. The primary endpoint of this study was time from randomization to relapse in the double-blind period. The secondary endpoint of this study was time from randomization to discontinuation from the double-blind period for any reason.
Male or female patients ≥50 and ≤90 years of age were eligible if they met the criteria for All-cause Dementia according to NIA-AA guidelines. Eligible patients met the clinical criteria for one of the following disorders, with or without cerebrovascular disease (CVD): Dementia associated with Parkinson's disease; Dementia with Lewy bodies; Possible or probable Alzheimer's disease; Frontotemporal degeneration spectrum disorders, including possible or probable behavioral variant frontotemporal dementia, progressive supranuclear palsy, or corticobasal degeneration; or Vascular dementia, including post-stroke dementia, multi-infarct dementia and/or subcortical ischemic vascular dementia (SIVD). […] In addition, eligible patients had all of the following scores at Visit 1 (Screening) and Visit 2 (open-label Baseline): SAPS-H+D total score ≥10; CGI-S ≥4 (moderately ill); and SAPS-H+D global item (H7 or D13) score ≥4 (marked). Patients with a known personal or family history or symptoms of long QT syndrome were excluded.
(§2) The study consisted of a screening period of up to 4 weeks (3-28 days); an open-label period of 12 weeks; a double-blind period of up to 26 weeks; and an approximately 4-week safety follow-up period.
During the open-label period, patients started pimavanserin 34 mg once daily (QD) by mouth beginning at Week 0 (open-label Baseline). Pimavanserin was continued daily at this dose level for at least the first week of treatment. After the first week, if the patient was unable to tolerate the 34 mg dose, the dose was decreased to 20 mg (provided as two 10 mg tablets) at any study visit (scheduled or unscheduled) until Week 4 (Visit 4). If the dose was decreased to 20 mg it may later be increased to 34 mg based on investigator judgment at any study visit (scheduled or unscheduled) until Week 4 (Visit 4). After Week 4 (Visit 4), the dose of study drug remained fixed at either 34 mg or 20 mg once daily.
The response criteria was ≥30% reduction from open-label baseline on SAPS-H+D total score and CGI-I score of 1 or 2. Analysis was restricted to eligible patients at the visit. A patient was eligible for the visit if the number of days between minimum (study discontinuation date, end of treatment date) and the first open-label dose exceeded the lower limit of the analysis visit window for the visit.

[3] = tested on: patients with dementia related psychosis; experiment: Double-blind, placebo-controlled period: relapse and all-cause discontinuation; settings: for Hazard Ratio, relapse / Odds ratio, relapse: vs placebo
Procedure: as §1, §2
Randomization occurred at the double-blind Baseline visit (Week 12). Patients were randomly assigned 1:1 to continue their pimavanserin dose (34 mg or 20 mg) or matching placebo. Randomization was stratified by most likely dementia subtype or most prominent cause of dementia (Alzheimer's disease or frontotemporal dementia spectrum disorders, vascular dementia, or Parkinson's disease dementia or dementia with Lewy bodies) and by region.
Relapse criteria were assessed weekly for the first 2 weeks after randomization (Weeks 13 and 14), every 2 weeks until Week 26, and every 4 weeks through Week 38. Relapse criteria was also evaluated at unscheduled visits. Any patients who met any of the relapse criteria after randomization were withdrawn from study drug and entered the safety follow-up period of the study.

[4] = open-label period, Overall N = 351

Question: For `CC(C)COc1ccc(CNC(=O)N(Cc2ccc(F)cc2)C2CCN(C)CC2)cc1` [pimavanserin, N-(4-Fluorophenylmethyl)-N-(1-methylpiperidin-4-yl)-N′-(4-(2-methylpropyloxy)phenylmethyl)carbamide], which tolerability ([1]; 34 mg, given long term in the elderly population) is on record?
Answer: The tolerability was “well tolerated”.

Question: What about the “impact on cognition (MMSE)” value ([1]; over 9 months of treatment, FIG. 8) of the same compound?
Answer: The value was “no negative impact”.

Question: What about the “psychosis (total SAPS-H+D change), exploratory analysis” value ([2]; across subtypes of dementia, baseline MMSE, baseline dementia severity, FIGS. 4A-C) of the same compound?
Answer: The value was “substantially reduced psychosis”.

Question: What about the “patients meeting response criteria” value ([2]; by Week 4, FIG. 2A) of the same compound?
Answer: The value was “about 50%”.

Question: And the “patients meeting response criteria” value ([2]; by Week 8, FIG. 2B)?
Answer: Its value is “about 70%”.

Question: What about the “total SAPS-H+D reduction in change from open-label baseline” value ([2]; by Week 12, FIG. 1) of the same compound?
Answer: Its value is 75.2%.

Question: What about the “CGI-S score reduction from baseline” value ([2]; by Week 12, overall population and across subtypes of dementia, FIG. 5A, 5B) of the same compound?
Answer: Its value is “about 2”.

Question: What about the “response rate across subgroups” value ([2]; dementia subtypes, baseline MMSE, age, psychosis severity, FIG. 2C-2F) of the same compound?
Answer: Its value is “consistently high response rate”.

Question: And the “patients demonstrating sustained response” value ([2]; open label period)?
Answer: The value was over 60%.

Question: And the “Early Termination: Adverse Event, (%)” value ([2]; open-label period, AD N = 229)?
Answer: The value was “(7.9) %”.

Question: What about the “Early Termination: Lack of Response in Open Label, (%)” value (“Early Termination: Lack … (%)” below) ([2]; open-label period, AD N = 229) of the same compound?
Answer: Its value is “(20.1) %”.

Question: What about the “Randomized to Double-blind Period, (%)” value ([2]; open-label period, AD N = 229) of the same compound?
Answer: Its value is “(59.8) %”.

Question: What about the “Early Termination: Adverse Event, (%)” value ([2]; open-label period, DLB N = 22) of the same compound?
Answer: Its value is “(4.5) %”.

Question: What about the “Early Termination: Lack … (%)” value ([2]; open-label period, DLB N = 22) of the same compound?
Answer: Its value is “(40.9) %”.

Question: And the “Randomized to Double-blind Period, (%)” value ([2]; open-label period, DLB N = 22)?
Answer: The value was “(45.5) %”.

Question: What about the “Early Termination: Adverse Event, (%)” value ([2]; open-label period, FTD N = 6) of the same compound?
Answer: Its value is “(16.7) %”.

Question: What about the “Early Termination: Lack … (%)” value ([2]; open-label period, FTD N = 6) of the same compound?
Answer: The value was “(33.3) %”.

Question: What about the “Randomized to Double-blind Period, (%)” value ([2]; open-label period, FTD N = 6) of the same compound?
Answer: The value was “(50) %”.

Question: What about the “Early Termination: Adverse Event, (%)” value [2, 4] of the same compound?
Answer: Its value is “(7.7) %”.

Question: What about the “Early Termination: Adverse Event, Number” value [2, 4] of the same compound?
Answer: Its value is 27.

Question: What about the “Early Termination: Death, (%)” value [2, 4] of the same compound?
Answer: The value was “(0.3) %”.

Question: What about the “Early Termination: Death, Number” value [2, 4] of the same compound?
Answer: Its value is 1.

Question: And the “Early Termination: Lack … (%)” value [2, 4]?
Answer: Its value is “(19.9) %”.

Question: What about the “Early Termination: Lack of Response in Open Label, Number” value [2, 4] of the same compound?
Answer: Its value is 70.

Question: And the “Randomized to Double-blind Period, (%)” value [2, 4]?
Answer: The value was “(61.8) %”.

Question: What about the “Randomized to Double-blind Period, Number” value [2, 4] of the same compound?
Answer: The value was 217.

Question: What about the “Early Termination: Adverse Event, (%)” value ([2]; open-label period, PDD N = 59) of the same compound?
Answer: The value was “(6.8) %”.

Question: What about the “Early Termination: Death, (%)” value ([2]; open-label period, PDD N = 59) of the same compound?
Answer: Its value is “(1.7) %”.

Question: What about the “Early Termination: Lack … (%)” value ([2]; open-label period, PDD N = 59) of the same compound?
Answer: Its value is “(15.3) %”.

Question: What about the “Randomized to Double-blind Period, (%)” value ([2]; open-label period, PDD N = 59) of the same compound?
Answer: Its value is “(71.2) %”.

Question: And the “Early Termination: Adverse Event, (%)” value ([2]; open-label period, VaD N = 35)?
Answer: Its value is “(8.6) %”.

Question: What about the “Early Termination: Lack … (%)” value ([2]; open-label period, VaD N = 35) of the same compound?
Answer: Its value is “(11.4) %”.

Question: And the “Randomized to Double-blind Period, (%)” value ([2]; open-label period, VaD N = 35)?
Answer: Its value is “(71.4) %”.

Question: What about the “Incidence of relapse, (%)” value ([3]; AD) of the same compound?
Answer: Its value is 13.1%.

Question: What about the “Incidence of relapse, n/N” value ([3]; AD) of the same compound?
Answer: Its value is 8/61.

Question: What about the “Hazard Ratio, relapse” value ([3]; AD) of the same compound?
Answer: Its value is 0.618.

Question: And the “Odds ratio, relapse” value ([3]; AD)?
Answer: The value was 0.5175.

Question: And the “Hazard Ratio (Pimavanserin/Placebo), relapse” value ([3]; Cox regression, 95% CI (0.172, 0.727), one-sided p 0.0023)?
Answer: Its value is 0.353.

Question: What about the “Hazard Ratio (Pimavanserin/Placebo), all-cause discontinuation” value ([3]; Cox regression, 95% CI (0.261, 0.785), one-sided p 0.0024) of the same compound?
Answer: Its value is 0.452.

Question: What about the “Incidence of relapse, (%)” value ([3]; DLB) of the same compound?
Answer: The value was 0.0%.

Question: What about the “Incidence of relapse, n/N” value ([3]; DLB) of the same compound?
Answer: Its value is 0/6.

Question: What about the “Incidence of relapse, (%)” value ([3]; FTD) of the same compound?
Answer: Its value is 100%.

Question: What about the “Incidence of relapse, n/N” value ([3]; FTD) of the same compound?
Answer: Its value is 1/1.

Question: And the “Incidence of relapse, (%)” value ([3]; Overall)?
Answer: Its value is 12.6%.

Question: What about the “Incidence of relapse, n/N” value ([3]; Overall) of the same compound?
Answer: Its value is 12/95.

Question: What about the “Hazard Ratio, relapse” value ([3]; Overall) of the same compound?
Answer: Its value is 0.353.

Question: What about the “Odds ratio, relapse” value ([3]; Overall) of the same compound?
Answer: The value was 0.3666.

Question: And the “Incidence of relapse, (%)” value ([3]; PDD)?
Answer: Its value is 6.7%.

Question: What about the “Incidence of relapse, n/N” value ([3]; PDD) of the same compound?
Answer: The value was 1/15.

Question: And the “Hazard Ratio, relapse” value ([3]; PDD)?
Answer: The value was 0.054.

Question: What about the “Odds ratio, relapse” value ([3]; PDD) of the same compound?
Answer: The value was 0.0714.

Question: What about the “Incidence of relapse, (%)” value ([3]; VaD) of the same compound?
Answer: Its value is 16.7%.

Question: And the “Incidence of relapse, n/N” value ([3]; VaD)?
Answer: Its value is 2/12.

Question: What about the “Hazard Ratio, relapse” value ([3]; VaD) of the same compound?
Answer: Its value is 1.065.

Question: What about the “Odds ratio, relapse” value ([3]; VaD) of the same compound?
Answer: The value was 1.00.

Question: And the “reduction of risk of relapse of dementia related psychosis (psychotic exacerbation) compared to placebo” value ([3]; double-blind period, FIG. 6)?
Answer: The value was 2.8 times.

Question: And the “reduction of risk of all-cause discontinuation compared to placebo” value ([3]; double-blind period, FIG. 7)?
Answer: The value was 2.2 ×.

Question: What about the “Completed Week 26 Without a Relapse, (%)” value ([3]; double-blind period, N = 95) of the same compound?
Answer: Its value is 38.9%.

Question: And the “Number of Patients Discontinued for Any Reason, (%)” value ([3]; double-blind period, N = 95)?
Answer: The value was 22.1%.

Question: What about the “Number of Patients Having a Relapse Event, (%)” value ([3]; double-blind period, N = 95) of the same compound?
Answer: Its value is 12.6%.

Question: What about the “patients on placebo more likely to drop out of the trial for any reason” value ([3]; placebo vs pimavanserin) of the same compound?
Answer: The value was 2.2 times.
